Structures can show the parent of a compound that is named as a salt.
Experiments:
Test in all cases: MIC, agar dilution
Assay type in all cases: cell-based
[1] = system: Acinetobacter calcoaceticus, 8333; details: Acinetobacter calcoaceticus, 8333, 18 h, K-10 agar, 10^4 CFU, 37°C, read-out: M.I.C.
Description: (§1) The following methodology is used to determine the minimum inhibitory concentration (hereinafter referred to as MIC) of the […] of this invention.
(§2) The test organisms are grown in approximately 15-20 ml of Antibiotic Assay broth (Difco) by inoculating (in tubes) the broth with a loopful of the organism from a BHI (Difco) agar slant. The inoculated tubes are incubated at 37°C for 18 to 20 hours. These cultures are assumed to contain 10^9 colony forming units (hereinafter CFU) per milliliter. The cultures are diluted 1:100 to give a final inoculum level of 10^4 CFU; dilutions are made with K-10 broth^*.
(§3) The compounds are dissolved in the appropriate diluent at a concentration of 1000 µg/ml. Twofold dilutions are made in K-10 broth resulting in a range from 1000 µg/ml to 0.5 µg/ml. 1.5 ml of each dilution is placed into individual square petri dishes to which 13.5 ml of K-10 agar^** is added. The final drug concentration in the agar ranges from 100 µg/ml to 0.05 µg/ml. Organism growth control plates containing agar only are prepared and inoculated before and after the test plates. The organisms are applied to the agar surface of each plate with the Denley Multipoint Inoculator (which delivers approximately 0.001 ml of each organism) resulting in a final inoculum level of 10^4 CFU on the agar surface.
(§4) The plates are incubated at 37 °C for 18 hours and the MIC's are determined. The MIC is the lowest concentration of compound inhibiting growth of the organism.
(§5) The tables that follow are tabulated results obtained when the B-lactams of this invention are tested against various organisms. The number following each organism refers to the number of the organism in the collection of E. R. Squibb & Sons,.Inc., Princeton, New Jersey. […] The symbol "N.T." means not tested.

[2] = system: Citrobacter freundii, 9518; details: K-10 agar, 10^4 CFU, 37°C, 18 hours, read-out: M.I.C.
Description: as §1, §2, §3, §4, §5

[3] = system: Enterobacter aerogenes, 10078; details: Klebsiella aerogenes, 10078, 18 h, Enterobacter aerogenes, 10078; K-10 agar, 10^4 CFU, 37°C, 18 hours; read-out: M.I.C.
Description: as §1, §2, §3, §4, §5

Escherichia coli, 10857 = details: Escherichia coli, 10857, 18 h, K-10 agar, 10^4 CFU, 37°C
Description: as §1, §2, §3, §4, §5

Escherichia coli, 10896 = details: K-10 agar, 10^4 CFU, 37°C, 18 hours
Description: as §1, §2, §3, §4, §5

Escherichia coli, 10909 = details: K-10 agar, 10^4 CFU, 37°C, 18 hours
Description: as §1, §2, §3, §4, §5

Escherichia coli, 8294 = details: Escherichia coli, 8294, 18 h, K-10 agar, 10^4 CFU, 37°C
Description: as §1, §2, §3, §4, §5

[4] = system: Klebsiella aerogenes, 10440; details: K-10 agar, 10^4 CFU, 37°C, 18 hours, read-out: M.I.C.
Description: as §1, §2, §3, §4, §5

[5] = system: Klebsiella pneumoniae, 9527; details: Klebsiella pneumoniae, 9527, 18 h, K-10 agar, 10^4 CFU, 37°C, read-out: M.I.C.
Description: as §1, §2, §3, §4, §5

Proteus mirabilis, 3855 = details: Proteus mirabilis, 3855, 18 h, K-10 agar, 10^4 CFU, 37°C, read-out: M.I.C.
Description: as §1, §2, §3, §4, §5

Proteus rettgeri, 8479 = details: Providencia rettgeri, K-10 agar, 10^4 CFU, 37°C, 18 hours, read-out: M.I.C.
Description: as §1, §2, §3, §4, §5

Proteus vulgaris, 9416 = details: K-10 agar, 10^4 CFU, 37°C, 18 hours, read-out: M.I.C.
Description: as §1, §2, §3, §4, §5

[6] = system: Pseudomonas aeruginosa, 8329; details: K-10 agar, 10^4 CFU, 37°C, 18 hours, read-out: M.I.C.
Description: as §1, §2, §3, §4, §5

[7] = system: Pseudomonas aeruginosa, 9545; details: Pseudomonas aeruginosa, 9545, 18 h, K-10 agar, 10^4 CFU, 37°C, read-out: M.I.C.
Description: as §1, §2, §3, §4, §5

Salmonella typhosa, 1195 = details: Salmonella enterica, TYPHOSA, 18 h, K-10 agar, 10^4 CFU, 37°C
Description: as §1, §2, §3, §4, §5

[8] = system: Serratia marcescens, 9783; details: Serratia marcescens, 9783, 18 h, K-10 agar, 10^4 CFU, 37°C, read-out: M.I.C.
Description: as §1, §2, §3, §4, §5

Shigella sonnei, 8449 = details: Shigella sonnei, 8449, 18 h, K-10 agar, 10^4 CFU, 37°C
Description: as §1, §2, §3, §4, §5

[9] = system: Staphylococcus aureus, 10165; details: Staphylococcus aureus, 10165; K-10 agar, 10^4 CFU, 37°C, 18 hours; read-out: M.I.C.
Description: as §1, §2, §3, §4, §5

[10] = system: Staphylococcus aureus, 1276; details: Staphylococcus aureus, 1276; K-10 agar, 10^4 CFU, 37°C, 18 hours; read-out: M.I.C.
Description: as §1, §2, §3, §4, §5

[11] = system: Staphylococcus aureus, 2399; details: Staphylococcus aureus, 2399, 18 h, Staphylococcus aureus, 2399; K-10 agar, 10^4 CFU, 37°C, 18 hours; read-out: M.I.C.
Description: as §1, §2, §3, §4, §5

[12] = system: Staphylococcus aureus, 2400; details: Staphylococcus aureus, 2400; K-10 agar, 10^4 CFU, 37°C, 18 hours; read-out: M.I.C.
Description: as §1, §2, §3, §4, §5

[13] = system: Streptococcus faecalis, 9011; details: Enterococcus faecalis; Streptococcus faecalis, 9011; K-10 agar, 10^4 CFU, 37°C, 18 hours; read-out: M.I.C.
Description: as §1, §2, §3, §4, §5

[14] = system: Enterobacter cloacae, 8236; details: Enterobacter cloacae, 8236, 18 h, K-10 agar, 10^4 CFU, 37°C
Description: as §1, §2, §3
(§6) The MIC is the lowest concentration of compound inhibiting growth of the organism.
(§7) The number following each organism refers to the number of the organism in the collection of E. R. Squibb & Sons,.Inc., Princeton, New Jersey. […] The symbol "N.T." means not tested.

Micrococcus luteus, 2495 = details: Micrococcus luteus, 2495, 18 h, K-10 agar, 10^4 CFU, 37°C, read-out: M.I.C.
Description: as §1, §2, §3, §6, §7

[15] = system: Streptococcus agalactiae, 9287; details: Streptococcus agalactiae, 9287, 18 h, K-10 agar, 10^4 CFU, 37°C, read-out: M.I.C.
Description: as §1, §2, §3, §6, §7

| SMILES | MIC [1] | MIC [2] | MIC [3] | MIC (Escherichia coli, 10857) | MIC (Escherichia coli, 10896) | MIC (Escherichia coli, 10909) | MIC (Escherichia coli, 8294) | MIC [4] | MIC [5] | MIC (Proteus mirabilis, 3855) | MIC (Proteus rettgeri, 8479) | MIC (Proteus vulgaris, 9416) | MIC [6] | MIC [7] | MIC (Salmonella typhosa, 1195) | MIC [8] | MIC (Shigella sonnei, 8449) | MIC [9] | MIC [10] | MIC [11] | also measured |
| --- | --- | --- | --- | --- | --- | --- | --- | --- | --- | --- | --- | --- | --- | --- | --- | --- | --- | --- | --- | --- | --- |
| C[C@@H]1[C@H](NC(=O)[C@H](NC(=O)N2CCN(NC(=O)OCc3ccccc3)C(=O)C2=O)c2ccccc2)C(=O)N1S(=O)(=O)O (relative stereo) [Example 20, [3S-[3α(R*),4α]]-[4-[[[2-[(4-methyl-2-oxo-1-sulfo-3-azetidinyl)amino]-2-oxo-1-phenylethyl]amino]carbonyl]-2,3-dioxo-1-piperazinyl]carbamic acid, phenylmethyl ester, potassium salt] | 50 µg/mL | 3.1 µg/mL | 6.3 µg/mL | < 0.05 µg/mL | 0.8 µg/mL | 0.4 µg/mL | 3.1 µg/mL | 12.5 µg/mL | 0.4 µg/mL | 1.6 µg/mL | 1.6 µg/mL | < 0.05 µg/mL | 100 µg/mL | 3.1 µg/mL | 1.6 µg/mL | 3.1 µg/mL | 1.6 µg/mL | > 100 µg/mL | 6.3 µg/mL | 6.3 µg/mL | MIC [12]: 25 µg/mL; MIC [13]: > 100 µg/mL; MIC [14]: 1.6 µg/mL; MIC (Micrococcus luteus, 2495): 3.1 µg/mL; MIC [15]: 3.1 µg/mL |
| C[C@@H]1[C@H](NC(=O)[C@H](NC(=O)N2CCN(N=Cc3ccco3)C2=O)c2ccccc2)C(=O)N1S(=O)(=O)O (relative stereo) [Example 21, [3S-[3α(R*),4α]]-3-[[[[[3-[(2-furanylmethylene)-amino]-2-oxo-1-imidazolidinyl]carbonyl]-amino]phenylacetyl]amino]-4-methyl-2-oxo-1-azetidinesulfonic acid, potassium salt] | 50 µg/mL | 1.6 µg/mL | 3.1 µg/mL | < 0.05 µg/mL | 0.4 µg/mL | 0.2 µg/mL | 1.6 µg/mL | 1.6 µg/mL | 0.2 µg/mL | 0.8 µg/mL | 1.6 µg/mL | < 0.05 µg/mL | 12.5 µg/mL | 12.5 µg/mL | 0.4 µg/mL | 3.1 µg/mL | 0.8 µg/mL | 100 µg/mL | 3.1 µg/mL | 3.1 µg/mL | MIC [12]: 6.3 µg/mL; MIC [13]: > 100 µg/mL; MIC [14]: 1.6 µg/mL; MIC (Micrococcus luteus, 2495): 3.1 µg/mL; MIC [15]: 0.4 µg/mL |
| CCN1CCN(C(=O)N[C@@H](C(=O)N[C@@H]2C(=O)N(S(=O)(=O)O)[C@@H]2C)c2ccccc2)C(=O)C1=O (relative stereo) [Example 22, [3S-[3α(R*),4α]]-3-[[[[(4-ethyl-2,3-dioxo-1-piperazinyl)carbonyl]amino]phenylacetyl]-amino]-4-methyl-2-oxo-1-azetidinesulfonic acid, potassium salt] | 12.5 µg/mL | 3.1 µg/mL | 6.3 µg/mL | 0.1 µg/mL | 1.6 µg/mL | 0.4 µg/mL | 3.1 µg/mL | 12.5 µg/mL | 0.1 µg/mL | 0.4 µg/mL | 0.2 µg/mL | < 0.05 µg/mL | 12.5 µg/mL | 6.3 µg/mL | 0.4 µg/mL | 6.3 µg/mL | 1.6 µg/mL | 100 µg/mL | 6.3 µg/mL | 6.3 µg/mL | MIC [12]: 25 µg/mL; MIC [13]: > 100 µg/mL; MIC [14]: 0.8 µg/mL; MIC (Micrococcus luteus, 2495): 6.3 µg/mL; MIC [15]: 6.3 µg/mL |
